According to patent US8673938B2, “Chemical compounds” (priority 2006, dated 2014):

Molecular target: human 11βHSD1 enzyme (Homo sapiens (Human), UniProt P28845)
Test: biochemical
Details: for inhibition at 30 µM: read-out: % inhibition of human 11-βHSD
Procedure: The evaluation of compounds described herein was carried out using a baculovirus expressed N terminal 6-His tagged full length human 11βHSD1 enzyme(*1). […] Inhibitors of 11βHSD1 reduce the conversion of cortisone to cortisol, which is identified by an increase in signal, in the above assay.
Compounds to be tested were dissolved in dimethyl sulphoxide (DMSO) to 10 mM and diluted further in assay buffer containing 1% DMSO to 10 fold the final assay concentration. Diluted compounds were then plated into black 384 well plates (Matrix, Hudson N.H., USA).
The assay plates were incubated for 25 minutes at 37° C. after which time the reaction was stopped by the addition of 10 μl of 0.5 mM glycerrhetinic acid plus conjugated cortisol (XL665 or D2). 10 μl of anti-cortisol Cryptate was then added and the plates sealed and incubated for 6 hours at room temperature.

Sequence of human 11βHSD1 enzyme (P28845 whole entry): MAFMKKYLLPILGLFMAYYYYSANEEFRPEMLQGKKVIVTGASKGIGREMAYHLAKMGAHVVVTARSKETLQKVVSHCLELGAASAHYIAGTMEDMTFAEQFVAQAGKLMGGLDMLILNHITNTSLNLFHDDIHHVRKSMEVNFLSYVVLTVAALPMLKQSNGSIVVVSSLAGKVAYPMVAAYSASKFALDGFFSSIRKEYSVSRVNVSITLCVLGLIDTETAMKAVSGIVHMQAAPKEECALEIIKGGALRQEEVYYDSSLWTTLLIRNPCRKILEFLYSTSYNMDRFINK

CCCSc1nc(N2CCCC(C(=O)O)CC2)ccc1C(=O)NC1CCCCC1 (centres unmarked) [Example 31, 1-[5-(cyclohexylcarbamoyl)-6-propylsulfanyl-pyridin-2-yl]azepane-4-carboxylic acid] showed an inhibition at 30 µM of 94%.
Work on COc1nc(N2CCC[C@@H](CC(=O)O)C2)ccc1C(=O)NC1CCCCC1 [compound 139, 2-[(3S)-1-[5-(cyclohexyl-carbamoyl)-6-methoxy-pyridin-2-yl]-3-piperidyl] acetic acid] yielded an inhibition at 30 µM of 89%.
O=C(O)C[C@@H]1CCCN(c2ccc(C(=O)NC34CC5CC(CC(C5)C3)C4)cn2)C1 [{(3S)-1-[5-(adamantan-1-ylcarbamoyl)pyridin-2-yl]piperidin-3-yl}acetic acid, reference compound] showed an IC50 of over 30 µM.
With CCCSc1nc(N2CCC(C(C)(C)C(=O)O)CC2)ccc1C(=O)NC1CCCCC1 [Example 48, 2-[1-[5-(cyclohexylcarbamoyl)-6-propylsulfanyl-pyridin-2-yl]-4-piperidyl]-2-methyl-propanoic acid] the inhibition at 30 µM was 75%.
For CCCSc1nc(NCC2CCC(C(=O)O)CC2)ccc1C(=O)N[C@H]1C2CC3CC1C[C@](O)(C3)C2 (some centres unmarked) [Example 80, 4-[[[5-[((2r,5s)-5-hydroxy-2-adamantyl)carbamoyl]-6-propylsulfanyl-pyridin-2-yl]amino]methyl]cyclohexane-1-carboxylic acid], the inhibition at 30 µM was 94%.
O=C(N[C@H]1C2CC3CC1C[C@](O)(C3)C2)c1ccc(N2CC[C@@H](C(=O)O)C2)nc1SC1CCCCC1 [Example 102, (3R)-1-[6-cyclohexylsulfanyl-5-[((2r,5s)-5-hydroxy-2-adamantyl)carbamoyl]pyridin-2-yl]pyrrolidine-3-carboxylic acid] showed an inhibition at 30 µM of 89%.
For CCCSc1nc(N2CCC[C@@H](CC(=O)O)C2)ccc1C(=O)NC1C2CC3CC(C2)CC1C3 (stereo partly drawn) [Example 59, 2-[(3S)-1-[5-(2-adamantylcarbamoyl)-6-propylsulfanyl-pyridin-2-yl]-3-piperidyl]acetic acid], the inhibition at 30 µM was 94%.
For O=C(O)CO[C@H]1CCN(c2ccc(C(=O)NC3C4CC5CC(C4)CC3C5)c(SC3CCCC3)n2)C1 (stereo partly drawn) [Example 69, 2-[(3S)-1-[5-(2-adamantylcarbamoyl)-6-cyclopentylsulfanyl-pyridin-2-yl]pyrrolidin-3-yl]oxyacetic acid], the inhibition at 30 µM was 91%.
Work on CCCSc1nc(Oc2ccc(C(=O)O)cc2)ccc1C(=O)NC1CCCCC1 [Example 16, 4-[5-(cyclohexylcarbamoyl)-6-propylsulfanyl-pyridin-2-yl]oxybenzoic acid] yielded an inhibition at 30 µM of 43%.
CCCSc1nc(N2CCC[C@@H](CC(=O)O)C2)ccc1C(=O)N1CCC(c2ccccn2)C1 (stereo partly drawn) [Example 114, 2-[(3S)-1-[6-propylsulfanyl-5-(3-pyridin-2-ylpyrrolidine-1-carbonyl)pyridin-2-yl]-3-piperidyl]acetic acid] gave an inhibition at 30 µM of 101%.
CCCSc1nc(N2CCC[C@@H](CC(=O)O)C2)ccc1C(=O)N(CC)C1CCCCC1 [Example 123, 2-[(3S)-1-[5-(cyclohexyl-ethyl-carbamoyl)-6-propylsulfanyl-pyridin-2-yl]-3-piperidyl]acetic acid] showed an inhibition at 30 µM of 94%.
Compound CCCSc1nc(N2CC[C@H](CC(=O)O)C2)ccc1C(=O)NC1C2CC3CC(C2)CC1C3 (stereo partly drawn) [Example 64, 2-[(3R)-1-[5-(2-adamantylcarbamoyl)-6-propylsulfanyl-pyridin-2-yl]pyrrolidin-3-yl]acetic acid] has an inhibition at 30 µM of 89%.
CCCSc1nc(N2CCCC(CC(=O)O)C2)ccc1C(=O)NC1CCCCC1 (centres unmarked) [Example 5, 2-[1-[5-(cyclohexylcarbamoyl)-6-propylsulfanyl-pyridin-2-yl]-3-piperidyl]acetic acid] gave an inhibition at 30 µM of 86%.
With CCCSc1nc(N2CCC[C@@H](CC(=O)O)C2)ccc1C(=O)N(C)C1CCOCC1 [Example 174, [(3S)-1-{5-[Methyl(tetrahydro-2H-pyran-4-yl)carbamoyl]-6-(propylthio)pyridin-2-yl}piperidin-3-yl]acetic acid] the inhibition at 30 µM was 92%.
With CCCSc1nc(N2CCC(C(=O)O)C2)ccc1C(=O)N[C@H]1C2CC3CC1C[C@@](O)(C3)C2 (some centres unmarked) [Example 89, 1-[5-[[(2r,5s)-5-hydroxy-2-adamantyl]carbamoyl]-6-propylsulfanyl-pyridin-2-yl]pyrrolidine-3-carboxylic acid] the inhibition at 30 µM was 85%.
O=C(O)C[C@@H]1CCCN(c2ccc(C(=O)NC3CCCCC3)c(N3CCc4ccccc4C3)n2)C1 [compound 144, 2-[(3S)-1-[5-(cyclohexylcarbamoyl)-6-(3,4-dihydro-1H-isoquinolin-2-yl)pyridin-2-yl]-3-piperidyl]acetic acid] showed an inhibition at 30 µM of 93%.
With CCS(=O)(=O)N1CCN(c2nc(N3CCC[C@@H](CC(=O)O)C3)ccc2C(=O)NC2CCCCC2)CC1 [compound 148, 2-[(3S)-1-[5-(cyclohexyl-carbamoyl)-6-(4-ethylsulfonyl-piperazin-1-yl)pyridin-2-yl]-3-piperidyl]acetic acid] the inhibition at 30 µM was 56%.
In the case of CCCSc1nc(N2CCC(C3(C(=O)O)CCC3)CC2)ccc1C(=O)NC1CCCCC1 [Example 49, 1-[1-[5-(cyclohexylcarbamoyl)-6-propylsulfanyl-pyridin-2-yl]-4-piperidyl]cyclobutane-1-carboxylic acid], the inhibition at 30 µM is reported as 77%.
CCCSc1nc(N2CC[C@@H](CC(=O)O)C2)ccc1C(=O)NC1C2CC3CC(C2)CC1C3 (stereo partly drawn) [Example 62, 2-[(3S)-1-[5-(2-adamantylcarbamoyl)-6-propylsulfanyl-pyridin-2-yl]pyrrolidin-3-yl]acetic acid] gave an inhibition at 30 µM of 89%.
Compound CCCSc1nc(N2CCC(OCC(=O)O)C2)ccc1C(=O)NC1CCCCC1 (centres unmarked) [Example 43, 2-[1-[5-(cyclohexylcarbamoyl)-6-propylsulfanyl-pyridin-2-yl]pyrrolidin-3-yl]oxyacetic acid] has an inhibition at 30 µM of 92%.
CCCSc1nc(N2CCC[C@H]2C(=O)O)ccc1C(=O)NC1CCCCC1 [Example 27, (2S)-1-[5-(cyclohexylcarbamoyl)-6-propylsulfanyl-pyridin-2-yl]pyrrolidine-2-carboxylic acid] was tested, and the inhibition at 30 µM was 94%.
Compound O=C(O)C[C@@H]1CCCN(c2ccc(C(=O)NC3CCCCC3)c(N3CCN(C(=O)OCc4ccccc4)CC3)n2)C1 [compound 150, 2-[(3S)-1-[5-(cyclohexylcarbamoyl)-6-(4-phenylmethoxy-carbonylpiperazin-1-yl)pyridin-2-yl]-3-piperidyl]acetic acid] has an inhibition at 30 µM of 74%.
Compound CCCSc1nc(N2CCC[C@@H](CC(=O)O)C2)c(F)cc1C(=O)NC1CCCCC1 [Example 186, (S)-2-(1-(5-(Cyclohexylcarbamoyl)-3-fluoro-6-(propylthio)pyridin-2-yl)piperidin-3-yl)acetic acid] has an inhibition at 30 µM of 104%.
Work on O=C(O)C[C@@H]1CCCN(c2ccc(C(=O)NC3CCCCC3)c(NCCc3ccccc3)n2)C1 [compound 152, 2-[(3S)-1-[5-(cyclohexylcarbamoyl)-6-(phenethylamino)pyridin-2-yl]-3-piperidyl]acetic acid] yielded an inhibition at 30 µM of 81%.
CCCSc1nc(N[C@H]2C3CC4CC2C[C@@](C(=O)O)(C4)C3)ccc1C(=O)NC1CCCCC1 [Example 10, (3R,5S)-4-[[5-(cyclohexylcarbamoyl)-6-propylsulfanyl-pyridin-2-yl]amino]adamantane-1-carboxylic acid] showed an inhibition at 30 µM of 88%.
CCCSc1nc(N2CCC[C@@H](CC(=O)O)C2)ccc1C(=O)N1CCC(c2ccccc2C(F)(F)F)C1 (stereo partly drawn) [Example 126, 2-[(3S)-1-[6-propylsulfanyl-5-[3-[2-(trifluoromethyl)phenyl]pyrrolidine-1-carbonyl]pyridin-2-yl]-3-piperidyl]acetic acid] showed an inhibition at 30 µM of 87%.
With CCCSc1nc(N2CCCC(OC(C)(C)C(=O)O)C2)ccc1C(=O)NC1CCCCC1 (centres unmarked) [Example 45] the inhibition at 30 µM was 85%.
O=C(O)C[C@@H]1CCCN(c2ccc(C(=O)NC3CCCCC3)c(N3CCN(C(=O)c4ccc(F)cc4)CC3)n2)C1 [compound 146, 2-[(3S)-1-[5-(cyclohexyl-carbamoyl)-6-[4-(4-fluorobenzoyl)piperazin-1-yl]pyridin-2-yl]-3-piperidyl]acetic acid] gave an inhibition at 30 µM of 58%.
In the case of O=C(N[C@H]1C2CC3CC1C[C@@](O)(C3)C2)c1ccc(N2CCC[C@H]2C(=O)O)nc1SC1CCCC1 [Example 97, (2S)-1-[6-cyclopentylsulfanyl-5-[((2r,5s)-5-hydroxy-2-adamantyl)carbamoyl]pyridin-2-yl]pyrrolidine-2-carboxylic acid], the inhibition at 30 µM is reported as 97%.
CCCSc1nc(N2CCC(C(C)C(=O)O)CC2)ccc1C(=O)NC1CCCCC1 (centres unmarked) [Example 28, 2-[1-[5-(cyclohexylcarbamoyl)-6-propylsulfanyl-pyridin-2-yl]-4-piperidyl]propanoic acid] gave an inhibition at 30 µM of 86%.
Compound CCCSc1nc(Sc2ccccc2C(=O)O)ccc1C(=O)NC1CCCCC1 [Example 24, 2-[5-(cyclohexylcarbamoyl)-6-propylsulfanyl-pyridin-2-yl]sulfanylbenzoic acid] has an inhibition at 30 µM of 77%.
In the case of O=C(N[C@H]1C2CC3CC1C[C@](OC(F)F)(C3)C2)c1ccc(N2CC[C@@H](C(=O)O)C2)nc1SC1CCCC1 [Example 182, (3R)-1-[6-cyclopentylsulfanyl-5-[[(2r,5s)-5-(difluoromethoxy)-2-adamantyl]carbamoyl]pyridin-2-yl]pyrrolidine-3-carboxylic acid], the inhibition at 30 µM is reported as 91%.
CCCSc1nc(N2CCC[C@H](CC(=O)O)C2)ccc1C(=O)N(C)C1CCCCC1 [Example 168, 2-[(3R)-1-[5-(Cyclohexyl-methyl-carbamoyl)-6-propylsulfanyl-pyridin-2-yl]-3-piperidyl]acetic acid] showed an inhibition at 30 µM of 108%.
For CCCSc1nc(N2CC[C@H](CC(=O)O)C2)ccc1C(=O)N[C@H]1C2CC3CC1C[C@@](O)(C3)C2 [Example 90, 2-[(3R)-1-[5-[[(2r,5s)-5-hydroxy-2-adamantyl]carbamoyl]-6-propylsulfanyl-pyridin-2-yl]pyrrolidin-3-yl]acetic acid], the inhibition at 30 µM was 88%.
In the case of CCCSc1nc(N2C[C@@H]3[C@H](C2)[C@H]3C(=O)O)ccc1C(=O)NC1C2CC3CC(C2)CC1C3 (stereo partly drawn) [Example 66, (1S,5R)-3-[5-(2-adamantylcarbamoyl)-6-propylsulfanylpyridin-2-yl]-3-azabicyclo[3.1.0]hexane-6-carboxylic acid], the inhibition at 30 µM is reported as 89%.
